Reference: US4000293A, “Method of inhibiting bacterial growth with certain selected 3-chloro-2-oxazolidinones” (Interx Research Corporation, priority 1975, dated 1976)
Read-outs that look alike come from different tables or passages of the source.

Columns and labels:
[1] = test system: Staphylococcus aureus ATCC 6538; assay: germicidal efficiency test (modified serial dilution; time to complete sterilization), Table A; format: cell-based; conditions: pH 7.0
Experimental: The compounds are thus useful as bactericidal agents.
(§1) The compounds of the invention and certain reference compounds were tested in the germidical efficiency test, a modification of the standard serial dilution test, against Staphylococcus aureus ATCC 6538. In the germicidal efficiency test, instead of determining the minimum inhibitory concentration as in the serial dilution test procedure, the time required to effect complete sterilization of the micro-organism when exposed to a given concentration of the test substance is determined. This procedure affords a basis of comparison of the time dependent efficacies of the various test substances which gives a measure not only of the germidical efficacy of the test species but, since as will be seen germicidal efficiency of the N-chloro compounds generally tends to diminish with time, apparently owing to decomposition of, and therefore dilution of, the active species, the test procedure also provides an indication of the efficacy to be expected at varying time intervals after solution of the test species in the application medium. The test procedure is described as follows: A stock solution of known concentration of each compound to be tested was prepared in 0.1M sodium dihydrogen phosphate buffered to pH 7.0. To 5 ml. of the test solution was added 0.2 ml. of an overnight broth culture containing from 6×10^6 to 8×10^6 organisms/ml. of Staphylococcus aureus ATCC 6538 and 5 g. of gelysate peptone and 3 g. of beef extract per 1000 ml. of water. At time intervals of 0.5, 1, 2, 3, 4, 5, 6, 7, 8, 9, 10, 15 and 30 minutes, a loop of this suspension was subcultured into 5 ml. of sterile nutrient broth (5 g. of gelysate peptone and 3 g. of beef extract/1000 ml. of water), and the samples were incubated at 37° C. for 7 days with daily observation for evidence of bacterial growth. The time interval in which no bacterial growth was observed after the incubation period in a particular sample was recorded as the end point.
(§2) The germicidal kill times so-obtained at various concentrations of the compounds of the invention and of certain reference compounds are given in Table A below. The compounds are identified in each case by the Example number above where the compounds are described. Here and elsewhere in the specification that follows, concentrations are expressed in parts per million (ppm) of "positive" chlorine, which was determined in each instance by addition of excess aqueous potassium iodide to an acidified solution of the test compound and titration of the iodine liberated with standard sodium thiosulfate solution.

[2] = test system: Staphylococcus aureus ATCC 6538; assay: contact germicidal (bactericidal) time before and after 14 day incubation of solutions at 40° C., Table B; format: cell-based; conditions: pH 7.0; for Bc Time, final: after 14 day incubation at 40° C.; for Bc Time, initial: before incubation, at initial ppm +Cl of the same line; for bactericidal activity after the test period (in words): after 14 days at 40° C.
Experimental: as §1
(§3) The stabilities and the time-dependent efficacies of the claimed and reference species were determined by comparing the contact germicidal times and the initial and final concentrations of positive chlorine in solutions of the test species in 0.1M sodium dihydrogen phosphate buffered to pH 7.0 before and after 14 day incubation of the solutions at 40° C. The results are given in Table B below, where the columns headed "Bc Time" refers to the bactericidal time in minutes.

[3] = positive chlorine concentration before and after 14 day incubation of solutions at pH 7.0, 40° C., Table B; format: physicochemical; conditions: for Final Concn. of positive chlorine: after 14 day incubation at 40° C.; for Final Concn. of positive chlorine / Initial Concn. of positive chlorine: 0.1M phosphate pH 7.0; for Initial Concn. of positive chlorine: before incubation; for decomposition over the test period (in words): 14 days, 40° C., pH 7.0
Experimental: as §2, §3

[4] = hydrolytic stability in 0.1M sodium dihydrogen phosphate pH 7.0 at 40° (first-order kinetics), Table C; format: physicochemical; conditions: for half-life: 0.1m phosphate buffer; for half-life / Rate Constant k: hydrolysis, 0.1M phosphate pH 7.0, 40°; for Rate Constant k: first-order
Experimental: A further measure of the relative stabilities of the reference and claimed species was obtained by measuring the hydrolytic stability of the various species in 0.1M sodium dihydrogen phosphate buffered to pH 7.0 at 40°. For each species, the rate of change in the concentration of positive chlorine in the solution was measured by the volume of standard thiosulfate required to titrate a series of aliquots of a standard volume of the solution at various time intervals using potassium iodide/sodium thiosulfate as detailed above. The volumes of thiosulfate required to titrate each sample so obtained were interpreted as first-order kinetic processes. The hydrolytic stabilities of the reference and claimed species under the experimental conditions were characterized by the reaction rate constants and half-lives obtained from a linear regression analysis of the experimental data. The results obtained are given in Table C below and are also shown in FIG. 1 where the volumes in milliliters of standard thiosulfate required to titrate the positive chlorine in the various samples are plotted as ordinate against time in days as abscissa.

[5] = stability in the neat state (% chlorine by iodometric titration), Table D; format: physicochemical
Experimental: In those instances, the data were acquired at ambient temperature (approximately 23° C.). The method used was similar to that described above in which the rate of disappearance of "positive" chlorine was followed iodometrically by titration of iodine liberated from added potassium iodide with standard sodium thiosulfate solution. Samples of the compounds were individually sealed in ampoules and stored in the dark at 23° C. or 40° C. and weighed amounts removed from time to time for analysis.
For each of the compounds analyzed as indicated above, percent chlorine was plotted as ordinate against time in days as abscissa on semi-logarithmic paper and the points connected by a smooth curve for each compound.

**Q.** Which results are given for `O=C1OCCN1Cl` [Example 1A, 3-chloro-2-oxazolidinone]?
**A.** Bactericidal Time ([1]; 157 ppm +Cl): 7 min; Bactericidal Time ([1]; 281 ppm +Cl): 2 min; Bactericidal Time ([1]; 465 ppm +Cl): 1 min; Bc Time, final [2]: > 30 min; Bc Time, initial [2]: 1 min; Final Concn. of positive chlorine [3]: 30 ppm +Cl; Initial Concn. of positive chlorine [3]: 465 ppm +Cl; half-life [4]: 45 h; Rate Constant k [4]: 0.0155 h⁻¹; % Cl, neat ([5]; 40° C., 0 Hrs.): 28.9%; % Cl, neat ([5]; 40° C., 2 Hrs.): 27.4%; % Cl, neat ([5]; 40° C., 18.5 Hrs.): 25.9%; % Cl, neat ([5]; 40° C., 24 Hrs.): 26.9%; % Cl, neat ([5]; 40° C., 54 Hrs.): 27.2%; % Cl, neat ([5]; 40° C., 72 Hrs.): 24.8%; % Cl, neat ([5]; 40° C., 80 Hrs.): 23.5%; % Cl, neat ([5]; 40° C., 98 Hrs.): 26.2%; % Cl, neat ([5]; 40° C., 144 Hrs.): 8.7%; % Cl, neat ([5]; 40° C., 168 Hrs.): 0.4%

**Q.** Which “Bactericidal Time” value ([1]; 131 ppm +Cl) does the source give for `CC1COC(=O)N1Cl` (stereo not shown) [Example 1B, 3-Chloro-4-methyl-2-oxazolidinone] here?
**A.** The value was 7 min.

**Q.** And the “Bactericidal Time” value ([1]; 303 ppm +Cl)?
**A.** The value was 4 min.

**Q.** And the “Bactericidal Time” value ([1]; 610 ppm +Cl)?
**A.** Its value is 1 min.

**Q.** And the “Bc Time, final” value [2]?
**A.** Its value is over 30 min.

**Q.** What about the “Bc Time, initial” value [2] of the same compound?
**A.** Its value is 1 min.

**Q.** What about the “Final Concn. of positive chlorine” value [3] of the same compound?
**A.** The value was 14 ppm +Cl.

**Q.** What about the “Initial Concn. of positive chlorine” value [3] of the same compound?
**A.** Its value is 610 ppm +Cl.

**Q.** What about the half-life [4] of the same compound?
**A.** The half-life was 10.9 h.

**Q.** And the “Rate Constant k” value [4]?
**A.** The value was 0.0633 h⁻¹.

**Q.** And the “% Cl, neat” value ([5]; 23° C., 0 Hrs.)?
**A.** Its value is 26.5%.

**Q.** What about the “% Cl, neat” value ([5]; 23° C., 3 Hrs.) of the same compound?
**A.** Its value is 25.9%.

**Q.** And the “% Cl, neat” value ([5]; 23° C., 5 Hrs.)?
**A.** The value was 25.3%.

**Q.** And the “% Cl, neat” value ([5]; 23° C., 6.5 Hrs.)?
**A.** The value was 25.0%.

**Q.** And the “% Cl, neat” value ([5]; 23° C., 9 Hrs.)?
**A.** The value was 25.0%.

**Q.** What about the “% Cl, neat” value ([5]; 23° C., 10.5 Hrs.) of the same compound?
**A.** Its value is 24.1%.

**Q.** What about the “% Cl, neat” value ([5]; 23° C., 21.5 Hrs.) of the same compound?
**A.** Its value is 21.7%.

**Q.** What about the “% Cl, neat” value ([5]; 23° C., 24.5 Hrs.) of the same compound?
**A.** The value was 21.1%.

**Q.** And the “% Cl, neat” value ([5]; 23° C., 29 Hrs.)?
**A.** The value was 14.4%.

**Q.** What about the “% Cl, neat” value ([5]; 23° C., 30 Hrs.) of the same compound?
**A.** Its value is 12.4%.

**Q.** What about the “% Cl, neat” value ([5]; 23° C., 32 Hrs.) of the same compound?
**A.** Its value is 6.1%.

**Q.** And the “% Cl, neat” value ([5]; 23° C., 35 Hrs.)?
**A.** The value was 2.0%.

**Q.** And the “% Cl, neat” value ([5]; 23° C., 45 Hrs.)?
**A.** The value was 0%.

**Q.** Which results are given for `CC1OC(=O)N(Cl)C1C` (stereo not shown) [Example 1C, 3-Chloro-4,5-dimethyl-2-oxazolidinone]?
**A.** Bactericidal Time ([1]; 117 ppm +Cl): 10 min; Bactericidal Time ([1]; 295 ppm +Cl): 5 min; Bactericidal Time ([1]; 490 ppm +Cl): 4 min; Bc Time, initial [2]: 4 min; Final Concn. of positive chlorine [3]: 51 ppm +Cl; Initial Concn. of positive chlorine [3]: 490 ppm +Cl; half-life [4]: 38.5 h; Rate Constant k [4]: 0.018 h⁻¹; % Cl, neat ([5]; 23° C., 0 Hrs.): 21.8%; % Cl, neat ([5]; 23° C., 3 Hrs.): 20.8%; % Cl, neat ([5]; 23° C., 5 Hrs.): 8.2%; % Cl, neat ([5]; 23° C., 7.5 Hrs.): 0.47%; % Cl, neat ([5]; 23° C., 24 Hrs.): 0.17%

**Q.** Which “Bactericidal Time” value ([1]; 74 ppm +Cl) does the source give for `CC1CN(Cl)C(=O)O1` (stereo not shown) [Example 1D, 3-Chloro-5-methyl-2-oxazolidinone] here?
**A.** The value was over 30 min.

**Q.** What about the “Bactericidal Time” value ([1]; 383 ppm +Cl) of the same compound?
**A.** Its value is 2 min.

**Q.** What about the “Bactericidal Time” value ([1]; 548 ppm +Cl) of the same compound?
**A.** The value was 0.5 min.

**Q.** And the “Bc Time, final” value [2]?
**A.** Its value is over 30 min.

**Q.** What about the “Bc Time, initial” value [2] of the same compound?
**A.** The value was 0.5 min.

**Q.** And the “Final Concn. of positive chlorine” value [3]?
**A.** Its value is 34 ppm +Cl.

**Q.** What about the “Initial Concn. of positive chlorine” value [3] of the same compound?
**A.** The value was 548 ppm +Cl.

**Q.** Which results are given for `CCC1CN(Cl)C(=O)O1` (stereo not shown) [Example 1E, 3-Chloro-5-ethyl-2-oxazolidinone]?
**A.** Bactericidal Time ([1]; 96 ppm +Cl): 6 min; Bactericidal Time ([1]; 161 ppm +Cl): 2 min; Bactericidal Time ([1]; 372 ppm +Cl): 3 min; Bactericidal Time ([1]; 535 ppm +Cl): 1 min; Bc Time, final [2]: > 30 min; Bc Time, initial [2]: 1 min; Final Concn. of positive chlorine [3]: 15 ppm +Cl; Initial Concn. of positive chlorine [3]: 535 ppm +Cl

**Q.** Which results are given for `CC1(C)COC(=O)N1Cl` [Example 1F, 3-Chloro-4,4-dimethyl-2-oxazolidinone]?
**A.** Bactericidal Time ([1]; 148 ppm +Cl): 5 min; Bactericidal Time ([1]; 195 ppm +Cl): 5 min; Bactericidal Time ([1]; 368 ppm +Cl): 3 min; Bactericidal Time ([1]; 508 ppm +Cl): 2 min; Bc Time, final [2]: 2 min; bactericidal activity after the test period (in words) [2]: retained the original level of bactericidal activity; Bc Time, initial [2]: 2 min; decomposition over the test period (in words) [3]: decomposed only slightly over the test period; Final Concn. of positive chlorine [3]: 527 ppm +Cl; Initial Concn. of positive chlorine [3]: 534 ppm +Cl; half-life [4]: 2040 h; Rate Constant k [4]: 0.00034 h⁻¹; hydrolytic stability (in words) ([4]; pH 7.0, 40°): unusual stability; % Cl, neat ([5]; 40° C., 0 Days): 23.4%; % Cl, neat ([5]; 40° C., 1 Day): 23.0%; % Cl, neat ([5]; 40° C., 2 Days): 23.8%; % Cl, neat ([5]; 40° C., 7 Days): 23.5%; % Cl, neat ([5]; 40° C., 35 Days): 24.2%; % Cl, neat ([5]; 40° C., 49 Days): 23.3%; stability in the neat state (in words) ([5]; neat, 40° C.): surprising stability

**Q.** Which results are given for `CCC1(C)COC(=O)N1Cl` (stereo not shown) [Example 1H, 3-Chloro-4-ethyl-4-methyl-2-oxazolidinone]?
**A.** Bc Time, final [2]: 3 min; bactericidal activity after the test period (in words) [2]: retained the original level of bactericidal activity; Bc Time, initial [2]: 3 min; decomposition over the test period (in words) [3]: decomposed only slightly over the test period; Final Concn. of positive chlorine [3]: 553 ppm +Cl; Initial Concn. of positive chlorine [3]: 555 ppm +Cl; stability in the neat state (in words) [5]: surprising stability; % Cl, neat ([5]; 40° C., 0 Days): 21.7%; % Cl, neat ([5]; 40° C., 2 Days): 23.6%; % Cl, neat ([5]; 40° C., 5 Days): 21.1%; % Cl, neat ([5]; 40° C., 10 Days): 20.7%; % Cl, neat ([5]; 40° C., 14 Days): 21.0%; % Cl, neat ([5]; 40° C., 18 Days): 20.6%; % Cl, neat ([5]; 40° C., 25 Days): 18.2%; % Cl, neat ([5]; 40° C., 39 Days): 22.3%; % Cl, neat ([5]; 40° C., 53 Days): 20.2%; % Cl, neat ([5]; 40° C., 164 Days): 19.6%
